Test results taken from patent US20140349329A1, “DENSITY ANALYSIS OF ORGANISMS BY MAGNETIC LEVITATION” (President and Fellows of Harvard College, priority 2011, published 2014).

How the values were obtained:
Format in all cases: in vivo
[1] = system: embryos of Danio rerio (i.e., zebrafish); assay: Development of zebrafish embryos levitated in paramagnetic medium
Protocol: To show the applicability of the present methodologies, two experiments using magnetic levitation ([…]) to quantify the change in density in different organisms are described. In particular, experiments were performed on C. elegans and embryos of Danio rerio (i.e., zebrafish). In these embodiments, the paramagnetic salt was chelated Mn•EDTA, and the osmolality of the paramagnetic medium was approximately isotonic with the species under study ( 300 mOsm/kg). The development of zebrafish was monitored over a period of 54 h in a solution of 100 mM Gd•DTPA and 150 mM Gd•DTPA with Percoll and a saline solution (FIG. 4). […] In these experiments, four zebrafish embryos (collected from one strain of fish) were placed into a paramagnetic medium containing Gd•DTPA, Percoll and saline buffer. For these experiments, polystyrene spheres were included as density controls. After 16 hours of monitoring development, the levitation medium was changed to one composed of a higher concentration of the gadolinium chelate.

C. elegans [2] = assay: Density of C. elegans by magnetic levitation (MagLev) after exposure to drug; details: worms treated with 6 mM aspirin (and Nile Red); medium 33% Percoll, 67% M9 buffer, 135 mM Mn•EDTA, 0.057 mM Ivermectin; T=23° C; N=10 worms; untreated 1.074±0.001
Protocol: To show the applicability of the present methodologies, two experiments using magnetic levitation (MagLev) to quantify the change in density in different organisms are described. In particular, experiments were performed on C. elegans and embryos of Danio rerio (i.e., zebrafish). In these embodiments, the paramagnetic salt was chelated Mn•EDTA, and the osmolality of the paramagnetic medium was approximately isotonic with the species under study (˜300 mOsm/kg).
In the experiments on C. elegans, the organism was exposed to aspirin, which results in an accumulation of lipids in the organism due to the sequestration of coenzyme A and the inhibition of fatty acid degradation. A density estimate of C. elegans exposed to aspirin and the density of control C. elegans that were not exposed to aspirin was determined via a Percoll gradient. […] Aspirin-treated C. elegans were centrifuged with a set of density marker beads in order to measure the density of different populations of C. elegans qualitatively and to establish the ranges of interest for quantitative density measurements using MagLev. […]
Using MagLev, the density of different populations of C. elegans was calculated with high precision. […] The magnetic levitation set up used to quantify the density of each worm involved placing the sample between two magnets. […]

C. elegans [3] = assay: Density estimate of C. elegans by centrifugation in a Percoll gradient with density marker beads; details: qualitative
Protocol: In the experiments on C. elegans, the organism was exposed to aspirin, which results in an accumulation of lipids in the organism due to the sequestration of coenzyme A and the inhibition of fatty acid degradation. A density estimate of C. elegans exposed to aspirin and the density of control C. elegans that were not exposed to aspirin was determined via a Percoll gradient. The density of C. elegans changed upon exposure to aspirin with respect to an unexposed control group. Aspirin-treated C. elegans were centrifuged with a set of density marker beads in order to measure the density of different populations of C. elegans qualitatively and to establish the ranges of interest for quantitative density measurements using MagLev. A chelated form of manganese, ethylenediaminetetraacetic acid disodium manganese salt (Mn•EDTA), was used in the MagLev experiments as it is FDA approved for in vivo applications. The analysis of treated and untreated populations of C. elegans by MagLev employed concentrations of Mn•EDTA up to several hundred millimolar. C. elegans were motile within the paramagnetic solution and their swimming motion counteracted the balance of magnetic and gravitational forces within the MagLev device. Ivermectin was introduced into the paramagnetic solution to paralyze the organisms, this stabilized the organisms within the MagLev device.

SMILES | development of embryos in the paramagnetic solution ([1]; 100 mM and 150 mM Gd•DTPA with Percoll and saline solution, monitored over 54 h) | morphology of the embryos after increase in concentration of the paramagnetic salt ([1]; medium changed after 16 hours to a higher concentration of the gadolinium chelate) | density of worms (MagLev) (C. elegans [2]) [g/mL] | density of C. elegans upon exposure, with respect to unexposed control group (C. elegans [3])
O=C([O-])CN(CCN(CC(=O)[O-])CC(=O)O)CCN(CC(=O)[O-])CC(=O)O.[Gd+3] [Gd•DTPA] | not affected | did not affect the morphology | – | –
CC(=O)Oc1ccccc1C(=O)O [aspirin] | – | – | 1.070 ± 0.002 | changed
